Assay results reported in article PMC12281475, “Mediator Kinase Inhibitor Selectivity and Activity in Colorectal Cancer” (ACS Chemical Biology, 2025).

Tested on: phospho-STAT1^SER727 in SW620 tumor xenografts
Experiment: Tumor phospho-STAT1 SER727 relative to total STAT1, electrochemiluminescent ELISA
Type: in vivo, mice
Conditions: 6 h after final dose
[1] = 14-20 days, 42 mg/kg p.o qd 5/7 days

In the case of `Cn1ncc2cc(-c3cnc(N)c(Cl)c3N3CCC4(CCNC4=O)CC3)ccc21` [CCT251921], the “tumor phospho-STAT1 SER727, CDK8/19 clones” value [1] is reported as “not”, the “tumor phospho-STAT1 SER727, parent, CDK19 and CDK8 clones” value [1] is reported as “significantly reduced” and the “tumor phospho-STAT1 SER727 levels, CDK8 and CDK8/19 knockouts” value (3 days, 42 mg/kg p.o. qd, except CDK8-KO-cl2 (p < 0.05)) is reported as “no significant change”. The “tumor phospho-STAT1 SER727 levels, parent and CDK19 clones” value (3 days, 42 mg/kg p.o. qd, p < 0.0001) was “significantly reduced”.
